# Where two headings read alike, the source gives them in different places.
# Key:
# [1] = cited from earlier work
# A431 cells = assay: EGF-IR700 light-dependent killing; format: cell-based; conditions: for light-dependent killing after conjugate pre-exposure: 1 μg/mL
# Description: To assess if EGF-IR700 cell killing was assessed in A431 cells. A431 cells were seeded at 5000 cells per well in 96 well white clear bottom dishes one day prior to the experiment. The following day, the A431 cells were washed three times with EMEM supplemented with 1% Penicillin/Streptomycin (serum free media). The A431 cells were then washed one time with serum free media, then incubated with serum free media containing 1 sg/mL of EGF-IRDye 700DX for one hour at 4° C. or serum free media only. As a control to assess the specificity of the activity, in one condition A431 cells were pre-incubated with 100 sg/mL unconjugated cetuximab diluted in serum free media for one hour at 4° C. prior to incubation with 1 sg/mL of EGF-IRDye 700DX. The cells were then washed one time with serum free media.
# To induce IR700-dependent killing, the cells were then illuminated with a 690 nm laser with 32 J/cm^2 of light or protected from light (“no light”). Cell death was evaluated as described in Example 9 using CellTox Green. The normalized percentage of dead cells was calculated by subtracting all wells by the percentage of dead cells from the no light serum free media only control, dividing by EGF-IRDye 700DX at 32 J/cm^2 minus the no light serum-free media only control, and multiplied 100.
# The effect of EGF-IRDye 700DX pre-exposure to white light versus green light on photo-activated cell killing was also evaluated in A431 cells. EGF-IRDye 700DX was pre-exposed to different types of light and the effect of light treatment on photo-activated killing activity was evaluated. Five microliters of EGF-IRDye 700DX conjugate (DAR 2) was added per clear HPLC vial at a EGF-IRDye 700DX concentration of 1.14 mg/mL. The following conditions were tested: (1) the antibody-IRDye 700DX conjugate stored at 4° C. protected from light (“4° C.”, used as the control); (2). antibody-IRDye 700DX conjugate placed in a clear glass HPLC tube under a Halogen lamp at 2500 lux for 24 hrs (“white light”); (3) antibody-IRDye 700DX conjugate placed in a clear glass HPLC tube wrapped in aluminum foil to protect from light exposure under Halogen lamp at 2500 lux for 24 hrs (“no light”, used as a control for thermal heating effects on the formation of aggregates); and (4) antibody-IRDye 700DX conjugate placed in a clear glass HPLC tube and exposed to green LED lamp at 2500 lux for 24 hrs (“green light”).
# To assess cell killing activity, A431 cells were washed two times with serum free media, and incubated in serum free media alone for one hour at 4° C. The cells were then washed one time with serum free media and incubated with serum free media alone or serum free media containing 1 μg/mL of EGF-IRDye 700DX (“no light”), serum free media containing 1 μg/mL of EGF-IRDye 700DX pre-exposed to white light (“2500 Lux White light”), or serum free media containing 1 μg/mL EGF-IRDye 700DX pre-exposed to green light for one hour at 4° C. (“2500 Lux Green light”). The cells were then washed one time with serum free media.
# To induce cell killing, the cells were either protected from light (light dose 0 J/cm^2) or were illuminated with a 690 nm laser with different light dosimetries (8 J/cm^2, 32 J/cm^2 or 64 J/cm).
molecule,measurement,setting,value
"C=Cc1c(C)c2cc3nc(c(CC(=O)N[C@@H](CC(=O)[O-])C(=O)[O-])c4[nH]c(cc5nc(cc1[nH]2)C(C)=C5CC)c(C)c4C(=O)[O-])[C@@H](CCC(=O)[O-])[C@@H]3C.[Na+].[Na+].[Na+].[Na+] [NPe6/Laserphyrin, mono-L-aspartylchlorin e6]",extinction coefficient,[1]; at 654 nm,40000 M⁻¹ cm⁻¹
EGF-IRDye 700DX: Human recombinant epidermal growth factor (EGF) conjugated to IRDye 700DX,cell killing,"A431 cells; 1 sg/mL, 690 nm 32 J/cm^2 or no light",light-dependent killing
same,cell killing after receptor blocking,"A431 cells; cells pre-exposed to 100 sg/mL unconjugated cetuximab, 1 sg/mL conjugate",blocked light-dependent cell killing
same,light-dependent killing after conjugate pre-exposure,"A431 cells; green light, green LED lamp 2500 lux 24 hours",comparable to that of the “no light” EGF-IRDye 700DX
same,light-dependent killing after conjugate pre-exposure,"A431 cells; protected from light, thermal heating under halogen lamp 2500 lux 24 hours",exhibited light-dependent killing
same,light-dependent killing after conjugate pre-exposure,"A431 cells; white light, halogen lamp 2500 lux 24 hours",no longer exhibited light-dependent killing activity
Photofrin,extinction coefficient,[1]; at 630 nm,1200 M⁻¹ cm⁻¹

# Source: US12491249B2, “Methods for manufacturing phthalocyanine dye conjugates and stable conjugates” (Rakuten Medical, Inc., priority 2015, dated 2025)
